The source of these data is patent US20160206688A1, “METHODS FOR TREATING BACTEREMIA AND OSTEOMYELITIS USING ORITAVANCIN” (THE MEDICINES COMPANY, priority 2013, published 2016).

For this experiment, the system named is MDR SA. In words: Microdilution MIC against MDR SA by specimen source. Format: cell-based, S. aureus. The procedure: 456 clinical, single-patient, non-consecutive, MDR SA isolates from the known specimen sources collected in 2011-2012 were analyzed. MDR was defined as resistant to ≧3 of the following: erythromycin, clindamycin, gentamicin, levofloxacin, and trimethoprim/sulfamethoxazole. 382 were MRSA and 74 were MSSA. MICs were determined by microdilution testing in accordance with CLSI M7 and M100 guidelines. Although other comparator drugs were tested, this analysis focuses on the activities of ORI, VAN, DAP, and LZD.

Values after ≈ are worked out from the molar mass of the structure shown.

What is called MIC50 is the lowest concentration that inhibits either 50% of growth or 50% of the strains tested, depending on the study. Read a high MIC50 as lower susceptibility. Broadly, the MIC90 is an inhibitory concentration at the 90% level, which refers to growth in some studies and to a panel of isolates in others. A low value points to higher susceptibility. For the compound `CN[C@H](CC(C)C)C(=O)N[C@H]1C(=O)N[C@@H](CC(N)=O)C(=O)N[C@H]2C(=O)N[C@H]3C(=O)N[C@H](C(=O)N[C@H](C(=O)O)c4cc(O)cc(O)c4-c4cc3ccc4O)[C@H](O[C@H]3C[C@](C)(N)[C@@H](O)[C@H](C)O3)c3ccc(c(Cl)c3)Oc3cc2cc(c3O[C@@H]2O[C@H](CO)[C@@H](O)[C@H](O)[C@H]2O[C@H]2C[C@](C)(NCc3ccc(-c4ccc(Cl)cc4)cc3)[C@@H](O)[C@H](C)O2)Oc2ccc(cc2Cl)[C@H]1O` [Oritavancin, N-(4-(4-chlorophenyl)benzyl)A82846B], the MIC50 by setting is: (Blood, n = 108) 0.03 µg/mL (≈ 0.0167 µM); (Respiratory, N = 157) 0.03 µg/mL (≈ 0.0167 µM); (Skin/Wound, N = 191) 0.03 µg/mL (≈ 0.0167 µM). The MIC90 by setting is: (Blood, n = 108) 0.12 µg/mL (≈ 0.0669 µM); (Respiratory, N = 157) 0.06 µg/mL (≈ 0.0335 µM); (Skin/Wound, N = 191) 0.06 µg/mL (≈ 0.0335 µM). Moreover, the Mode (MIC) was determined as 0.03 µg/mL (Blood, n = 108); 0.03 µg/mL (Respiratory, N = 157); 0.03 µg/mL (Skin/Wound, N = 191). Besides, the “Range (MIC)” value (Blood, n = 108, in µg/mL) is 0.015-0.25; the “Range (MIC)” value (Respiratory, N = 157, in µg/mL) is 0.008-0.25; the “Range (MIC)” value (Skin/Wound, N = 191) is “≦0.002-0.25”.
